{"source": "ChEMBL document CHEMBL5291721", "about": "“A preclinical secondary pharmacology resource illuminates target-adverse drug reaction associations of marketed drugs” (Nat Commun, 2023); also: assay procedure not described here", "key": {"[1]": {"molecular_target": "T1, Peroxisome proliferator-activated receptor gamma (Homo sapiens, UniProt P37231)", "T1 sequence (P37231 whole entry)": "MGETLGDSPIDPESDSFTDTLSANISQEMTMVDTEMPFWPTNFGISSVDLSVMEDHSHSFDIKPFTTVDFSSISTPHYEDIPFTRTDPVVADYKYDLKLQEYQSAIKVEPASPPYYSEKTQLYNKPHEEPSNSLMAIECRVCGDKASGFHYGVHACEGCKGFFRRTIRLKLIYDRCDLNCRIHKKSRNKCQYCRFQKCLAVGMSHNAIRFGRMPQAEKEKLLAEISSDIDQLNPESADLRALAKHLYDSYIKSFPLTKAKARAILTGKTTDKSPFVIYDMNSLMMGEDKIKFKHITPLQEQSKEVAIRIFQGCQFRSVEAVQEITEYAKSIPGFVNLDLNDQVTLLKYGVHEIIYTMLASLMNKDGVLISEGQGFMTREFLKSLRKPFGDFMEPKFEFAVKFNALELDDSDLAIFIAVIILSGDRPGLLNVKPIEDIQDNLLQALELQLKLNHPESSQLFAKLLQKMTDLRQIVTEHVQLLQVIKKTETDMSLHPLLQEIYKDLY", "assay_type": "functional"}, "[2]": {"molecular_target": "T1, Peroxisome proliferator-activated receptor gamma", "assay_type": "functional", "remark": "listed apart in the source"}, "[3]": {"molecular_target": "T2, Type-2 angiotensin II receptor (Homo sapiens, UniProt P50052)", "T2 sequence (P50052 whole entry)": "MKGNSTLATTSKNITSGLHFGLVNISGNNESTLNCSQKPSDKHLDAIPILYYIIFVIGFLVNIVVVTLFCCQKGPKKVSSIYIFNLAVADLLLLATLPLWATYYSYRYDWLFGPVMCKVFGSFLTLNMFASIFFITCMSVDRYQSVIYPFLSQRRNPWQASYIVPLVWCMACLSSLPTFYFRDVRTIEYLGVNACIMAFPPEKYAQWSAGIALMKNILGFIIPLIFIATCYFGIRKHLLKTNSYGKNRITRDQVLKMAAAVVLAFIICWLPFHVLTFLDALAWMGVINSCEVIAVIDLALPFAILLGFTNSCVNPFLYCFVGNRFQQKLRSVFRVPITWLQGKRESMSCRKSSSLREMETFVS", "assay_type": "functional"}, "[4]": {"molecular_target": "Voltage-dependent L-type calcium channel subunit alpha-1C (Homo sapiens, UniProt Q13936)", "sequence (Q13936 whole entry)": "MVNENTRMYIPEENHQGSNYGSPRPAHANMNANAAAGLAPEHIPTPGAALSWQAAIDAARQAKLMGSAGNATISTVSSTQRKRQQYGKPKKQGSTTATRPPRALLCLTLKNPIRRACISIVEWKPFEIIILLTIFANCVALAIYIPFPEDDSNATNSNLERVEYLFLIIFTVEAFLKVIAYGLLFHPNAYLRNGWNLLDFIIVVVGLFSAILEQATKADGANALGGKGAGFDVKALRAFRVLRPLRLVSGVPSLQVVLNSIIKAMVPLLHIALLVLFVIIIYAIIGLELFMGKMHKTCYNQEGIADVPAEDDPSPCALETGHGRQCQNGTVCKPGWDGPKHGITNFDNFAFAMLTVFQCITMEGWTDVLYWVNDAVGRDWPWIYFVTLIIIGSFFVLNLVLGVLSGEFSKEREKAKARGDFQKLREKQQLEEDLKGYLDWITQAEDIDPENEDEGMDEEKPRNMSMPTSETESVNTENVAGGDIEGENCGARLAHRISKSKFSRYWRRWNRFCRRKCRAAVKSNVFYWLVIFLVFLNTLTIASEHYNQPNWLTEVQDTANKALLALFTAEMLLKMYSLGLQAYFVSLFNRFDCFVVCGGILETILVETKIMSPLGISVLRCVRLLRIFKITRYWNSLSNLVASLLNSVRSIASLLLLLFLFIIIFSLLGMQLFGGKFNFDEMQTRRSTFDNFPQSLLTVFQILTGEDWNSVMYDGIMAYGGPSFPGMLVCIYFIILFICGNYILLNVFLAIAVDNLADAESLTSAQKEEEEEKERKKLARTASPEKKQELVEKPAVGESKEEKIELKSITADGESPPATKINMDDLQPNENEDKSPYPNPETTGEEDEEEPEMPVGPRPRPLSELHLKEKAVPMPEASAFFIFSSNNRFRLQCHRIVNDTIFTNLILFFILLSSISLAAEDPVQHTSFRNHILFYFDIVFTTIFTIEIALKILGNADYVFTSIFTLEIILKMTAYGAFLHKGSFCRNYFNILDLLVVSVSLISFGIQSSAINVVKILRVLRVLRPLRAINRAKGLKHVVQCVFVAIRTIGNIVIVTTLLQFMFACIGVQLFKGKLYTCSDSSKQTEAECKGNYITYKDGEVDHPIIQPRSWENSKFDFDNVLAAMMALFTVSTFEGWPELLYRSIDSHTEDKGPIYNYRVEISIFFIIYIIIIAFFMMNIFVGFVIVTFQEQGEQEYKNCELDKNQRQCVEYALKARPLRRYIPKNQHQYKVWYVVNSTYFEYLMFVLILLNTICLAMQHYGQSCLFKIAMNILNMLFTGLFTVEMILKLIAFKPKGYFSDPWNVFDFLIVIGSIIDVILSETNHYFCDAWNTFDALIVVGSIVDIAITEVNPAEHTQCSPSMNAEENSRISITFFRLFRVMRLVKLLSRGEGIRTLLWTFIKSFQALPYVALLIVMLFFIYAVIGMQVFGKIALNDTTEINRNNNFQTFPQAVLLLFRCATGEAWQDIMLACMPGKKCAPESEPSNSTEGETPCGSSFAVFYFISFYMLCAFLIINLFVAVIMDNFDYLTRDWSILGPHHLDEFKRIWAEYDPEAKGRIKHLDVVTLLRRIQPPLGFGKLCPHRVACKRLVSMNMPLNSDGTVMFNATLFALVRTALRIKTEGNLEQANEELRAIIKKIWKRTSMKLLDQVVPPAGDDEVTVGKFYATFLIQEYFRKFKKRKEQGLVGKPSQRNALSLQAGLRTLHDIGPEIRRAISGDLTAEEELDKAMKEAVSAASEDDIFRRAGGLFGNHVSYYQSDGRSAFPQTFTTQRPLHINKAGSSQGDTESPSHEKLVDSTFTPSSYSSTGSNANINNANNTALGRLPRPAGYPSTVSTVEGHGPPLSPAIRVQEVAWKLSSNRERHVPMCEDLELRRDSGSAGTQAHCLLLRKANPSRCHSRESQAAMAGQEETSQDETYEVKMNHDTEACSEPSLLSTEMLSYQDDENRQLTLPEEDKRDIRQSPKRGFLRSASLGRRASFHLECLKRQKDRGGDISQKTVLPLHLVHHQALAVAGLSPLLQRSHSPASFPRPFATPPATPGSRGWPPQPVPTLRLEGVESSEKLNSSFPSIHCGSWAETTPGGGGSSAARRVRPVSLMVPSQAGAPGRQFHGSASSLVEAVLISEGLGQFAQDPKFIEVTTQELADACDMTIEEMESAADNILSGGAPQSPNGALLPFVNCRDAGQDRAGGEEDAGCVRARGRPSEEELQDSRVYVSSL", "assay_type": "functional, cell-based"}, "[5]": {"molecular_target": "T3, Muscarinic acetylcholine receptor M4 (Homo sapiens, UniProt P08173)", "T3 sequence (P08173 whole entry)": "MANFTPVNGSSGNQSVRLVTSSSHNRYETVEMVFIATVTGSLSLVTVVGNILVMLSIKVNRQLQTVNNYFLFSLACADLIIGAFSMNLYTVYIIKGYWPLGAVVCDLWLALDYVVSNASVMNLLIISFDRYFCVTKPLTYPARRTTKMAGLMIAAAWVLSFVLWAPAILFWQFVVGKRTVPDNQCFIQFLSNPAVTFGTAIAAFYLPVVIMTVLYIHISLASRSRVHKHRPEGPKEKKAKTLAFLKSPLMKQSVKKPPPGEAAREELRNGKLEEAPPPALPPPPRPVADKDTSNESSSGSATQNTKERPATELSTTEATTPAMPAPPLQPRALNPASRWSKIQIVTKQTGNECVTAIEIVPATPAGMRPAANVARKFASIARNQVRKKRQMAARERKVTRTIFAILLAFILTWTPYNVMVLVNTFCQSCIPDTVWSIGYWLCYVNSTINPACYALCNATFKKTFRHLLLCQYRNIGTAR"}, "Cannabinoid receptor 1": {"molecular_target": "Cannabinoid receptor 1 (Homo sapiens, UniProt P21554)", "sequence (P21554 whole entry)": "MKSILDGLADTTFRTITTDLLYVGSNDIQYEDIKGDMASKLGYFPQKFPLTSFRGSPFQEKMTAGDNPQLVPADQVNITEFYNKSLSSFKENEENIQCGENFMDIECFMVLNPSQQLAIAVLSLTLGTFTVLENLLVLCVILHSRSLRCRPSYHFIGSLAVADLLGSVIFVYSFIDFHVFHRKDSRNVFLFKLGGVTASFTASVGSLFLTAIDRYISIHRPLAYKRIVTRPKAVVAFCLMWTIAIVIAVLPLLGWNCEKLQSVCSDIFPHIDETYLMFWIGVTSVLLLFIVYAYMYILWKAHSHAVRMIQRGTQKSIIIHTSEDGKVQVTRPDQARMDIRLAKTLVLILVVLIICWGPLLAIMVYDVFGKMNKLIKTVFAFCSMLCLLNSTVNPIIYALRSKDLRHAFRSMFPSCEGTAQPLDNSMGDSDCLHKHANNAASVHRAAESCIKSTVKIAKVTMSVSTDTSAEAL", "assay_type": "functional"}, "D(1B) dopamine receptor": {"molecular_target": "D(1B) dopamine receptor (Homo sapiens, UniProt P21918)", "sequence (P21918 whole entry)": "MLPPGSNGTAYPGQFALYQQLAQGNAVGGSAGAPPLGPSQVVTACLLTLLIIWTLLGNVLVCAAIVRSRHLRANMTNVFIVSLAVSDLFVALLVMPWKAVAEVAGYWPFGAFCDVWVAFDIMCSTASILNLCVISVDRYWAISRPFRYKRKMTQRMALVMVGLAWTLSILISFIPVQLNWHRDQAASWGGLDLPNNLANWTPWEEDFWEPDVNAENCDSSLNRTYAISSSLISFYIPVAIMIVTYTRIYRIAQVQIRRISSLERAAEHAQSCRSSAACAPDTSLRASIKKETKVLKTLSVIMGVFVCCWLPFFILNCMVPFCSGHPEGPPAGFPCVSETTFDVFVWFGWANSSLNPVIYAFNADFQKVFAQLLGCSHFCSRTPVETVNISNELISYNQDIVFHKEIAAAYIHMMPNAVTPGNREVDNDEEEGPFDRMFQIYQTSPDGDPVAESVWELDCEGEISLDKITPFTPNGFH"}, "[6]": {"molecular_target": "5-hydroxytryptamine receptor 7 (Homo sapiens, UniProt P34969)", "sequence (P34969 whole entry)": "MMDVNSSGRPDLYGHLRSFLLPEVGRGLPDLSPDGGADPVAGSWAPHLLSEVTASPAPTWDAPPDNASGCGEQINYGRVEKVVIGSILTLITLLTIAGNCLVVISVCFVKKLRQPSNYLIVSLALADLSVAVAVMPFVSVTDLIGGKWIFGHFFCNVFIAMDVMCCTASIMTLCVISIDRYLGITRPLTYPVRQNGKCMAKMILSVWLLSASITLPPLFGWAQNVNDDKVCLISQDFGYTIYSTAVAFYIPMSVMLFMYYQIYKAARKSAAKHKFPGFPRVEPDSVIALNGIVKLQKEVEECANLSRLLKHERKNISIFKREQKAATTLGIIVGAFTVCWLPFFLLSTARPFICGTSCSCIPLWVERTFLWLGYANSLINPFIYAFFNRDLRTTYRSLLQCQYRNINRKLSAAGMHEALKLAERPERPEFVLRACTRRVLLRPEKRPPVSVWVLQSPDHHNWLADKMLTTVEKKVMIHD"}, "[7]": {"molecular_target": "Rod cGMP-specific 3',5'-cyclic phosphodiesterase subunit alpha (Homo sapiens, UniProt P16499)", "sequence (P16499 whole entry)": "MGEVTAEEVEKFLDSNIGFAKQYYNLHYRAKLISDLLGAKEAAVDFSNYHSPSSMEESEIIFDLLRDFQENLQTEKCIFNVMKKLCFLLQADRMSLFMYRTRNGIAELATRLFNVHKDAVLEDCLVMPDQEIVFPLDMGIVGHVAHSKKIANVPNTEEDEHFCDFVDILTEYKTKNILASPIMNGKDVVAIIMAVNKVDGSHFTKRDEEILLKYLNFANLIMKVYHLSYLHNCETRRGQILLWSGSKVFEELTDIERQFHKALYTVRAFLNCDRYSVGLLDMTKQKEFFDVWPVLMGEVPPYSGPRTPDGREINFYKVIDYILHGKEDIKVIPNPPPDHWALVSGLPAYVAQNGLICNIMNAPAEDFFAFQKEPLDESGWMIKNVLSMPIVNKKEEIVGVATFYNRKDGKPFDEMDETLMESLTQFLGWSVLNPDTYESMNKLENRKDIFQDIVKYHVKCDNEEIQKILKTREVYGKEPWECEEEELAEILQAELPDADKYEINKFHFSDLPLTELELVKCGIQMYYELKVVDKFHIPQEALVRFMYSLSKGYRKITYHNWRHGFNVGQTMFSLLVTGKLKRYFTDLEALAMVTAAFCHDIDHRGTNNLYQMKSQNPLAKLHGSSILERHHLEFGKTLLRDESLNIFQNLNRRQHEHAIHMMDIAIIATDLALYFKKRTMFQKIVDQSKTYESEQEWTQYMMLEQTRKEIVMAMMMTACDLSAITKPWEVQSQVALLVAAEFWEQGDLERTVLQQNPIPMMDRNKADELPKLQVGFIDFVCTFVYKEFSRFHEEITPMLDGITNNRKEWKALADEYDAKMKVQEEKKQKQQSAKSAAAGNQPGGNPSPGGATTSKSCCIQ", "assay_type": "functional"}, "[8]": {"molecular_target": "Synaptic vesicular amine transporter (Rattus norvegicus, UniProt Q01827)", "assay_type": "functional"}, "[9]": {"molecular_target": "Hydroxycarboxylic acid receptor 2 (Homo sapiens, UniProt Q8TDS4)"}, "[10]": {"molecular_target": "T4, Muscarinic acetylcholine receptor M5 (Homo sapiens, UniProt P08912)", "T4 sequence (P08912 whole entry)": "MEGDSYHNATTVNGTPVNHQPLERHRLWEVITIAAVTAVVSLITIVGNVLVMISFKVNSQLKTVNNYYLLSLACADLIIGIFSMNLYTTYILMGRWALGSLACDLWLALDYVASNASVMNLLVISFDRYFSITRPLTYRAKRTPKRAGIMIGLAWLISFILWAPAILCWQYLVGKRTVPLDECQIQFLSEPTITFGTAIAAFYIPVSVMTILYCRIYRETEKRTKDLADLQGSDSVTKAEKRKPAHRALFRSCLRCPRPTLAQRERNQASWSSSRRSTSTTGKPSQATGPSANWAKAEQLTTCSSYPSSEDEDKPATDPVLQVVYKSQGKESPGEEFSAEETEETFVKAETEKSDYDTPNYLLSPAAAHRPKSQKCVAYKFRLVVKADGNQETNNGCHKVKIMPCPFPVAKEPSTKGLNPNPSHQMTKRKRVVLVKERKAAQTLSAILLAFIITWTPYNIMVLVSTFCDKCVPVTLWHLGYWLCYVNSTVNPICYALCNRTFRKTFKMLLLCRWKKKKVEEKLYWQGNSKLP"}, "[11]": {"molecular_target": "5-hydroxytryptamine receptor 6 (Homo sapiens, UniProt P50406)", "sequence (P50406 whole entry)": "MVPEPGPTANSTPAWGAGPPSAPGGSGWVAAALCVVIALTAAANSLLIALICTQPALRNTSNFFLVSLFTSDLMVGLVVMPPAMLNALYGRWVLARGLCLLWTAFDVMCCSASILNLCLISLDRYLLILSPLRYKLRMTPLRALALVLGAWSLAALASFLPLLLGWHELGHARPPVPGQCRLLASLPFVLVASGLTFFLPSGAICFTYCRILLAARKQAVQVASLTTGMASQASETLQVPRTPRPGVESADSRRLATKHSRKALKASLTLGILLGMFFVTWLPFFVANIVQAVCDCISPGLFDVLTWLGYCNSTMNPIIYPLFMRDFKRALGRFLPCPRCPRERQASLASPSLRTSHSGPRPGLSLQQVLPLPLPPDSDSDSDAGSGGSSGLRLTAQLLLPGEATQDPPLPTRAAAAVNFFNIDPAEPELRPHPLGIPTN"}, "[12]": {"molecular_target": "3',5'-cyclic-AMP phosphodiesterase 4A (Homo sapiens, UniProt P27815)", "assay_type": "functional"}}, "data": [{"smiles": "CO/N=C(\\C(=O)N[C@@H]1C(=O)N2C(C(=O)O)=CCS[C@H]12)c1csc(N)n1", "note": "[CEFTIZOXIME]", "values": [{"measurement": "AC50", "setting": "[1]", "result": "> 30", "unit": "µM"}, {"measurement": "AC50", "setting": "[2]", "result": "> 30", "unit": "µM"}]}, {"smiles": "Fc1ccc([C@@H]2CCNC[C@H]2COc2ccc3c(c2)OCO3)cc1", "note": "[PAROXETINE]", "values": [{"measurement": "AC50", "setting": "[3]", "result": "> 100", "unit": "µM"}, {"measurement": "AC50", "setting": "[4]", "result": "> 50", "unit": "µM"}, {"measurement": "AC50", "setting": "[5]", "result": 3.47, "unit": "µM"}, {"measurement": "AC50", "setting": "Cannabinoid receptor 1", "result": "> 10", "unit": "µM"}, {"measurement": "AC50", "setting": "D(1B) dopamine receptor", "result": "> 10", "unit": "µM"}, {"measurement": "AC50", "setting": "[6]", "result": "> 10", "unit": "µM"}, {"measurement": "AC50", "setting": "[7]", "result": "> 10", "unit": "µM"}, {"measurement": "AC50", "setting": "[8]", "result": 2.5, "unit": "µM"}]}, {"smiles": "CCC(=O)O[C@](Cc1ccccc1)(c1ccccc1)[C@H](C)CN(C)C", "note": "[PROPOXYPHENE]", "values": [{"measurement": "AC50", "setting": "[9]", "result": "> 10", "unit": "µM"}]}, {"smiles": "Cc1ccnc2c1NC(=O)c1cccnc1N2C1CC1", "note": "[NEVIRAPINE]", "values": [{"measurement": "AC50", "setting": "[5]", "result": "> 10", "unit": "µM"}, {"measurement": "AC50", "setting": "[10]", "result": "> 10", "unit": "µM"}, {"measurement": "AC50", "setting": "Cannabinoid receptor 1", "result": "> 10", "unit": "µM"}, {"measurement": "AC50", "setting": "D(1B) dopamine receptor", "result": "> 10", "unit": "µM"}, {"measurement": "AC50", "setting": "[11]", "result": "> 10", "unit": "µM"}, {"measurement": "AC50", "setting": "[6]", "result": "> 10", "unit": "µM"}, {"measurement": "AC50", "setting": "[7]", "result": "> 10", "unit": "µM"}]}, {"smiles": "NNC(=O)c1ccncc1", "note": "[ISONIAZID]", "values": [{"measurement": "AC50", "setting": "Cannabinoid receptor 1", "result": "> 10", "unit": "µM"}, {"measurement": "AC50", "setting": "[11]", "result": "> 10", "unit": "µM"}, {"measurement": "AC50", "setting": "[6]", "result": "> 10", "unit": "µM"}]}, {"smiles": "CC(c1cc2ccccc2s1)N(O)C(N)=O", "note": "(stereo unspecified) [ZILEUTON]", "values": [{"measurement": "AC50", "setting": "[8]", "result": "> 30", "unit": "µM"}]}, {"smiles": "CC(C)NC[C@H](O)COc1ccc(CC(N)=O)cc1", "note": "[ESATENOLOL]", "values": [{"measurement": "AC50", "setting": "Cannabinoid receptor 1", "result": "> 10", "unit": "µM"}, {"measurement": "AC50", "setting": "[11]", "result": "> 10", "unit": "µM"}, {"measurement": "AC50", "setting": "[6]", "result": "> 10", "unit": "µM"}]}, {"smiles": "CCCCOc1ccc(C(=O)CCN2CCCCC2)cc1", "note": "[DYCLONINE]", "values": [{"measurement": "AC50", "setting": "[5]", "result": 13.4, "unit": "µM"}, {"measurement": "AC50", "setting": "[10]", "result": 15.8, "unit": "µM"}, {"measurement": "AC50", "setting": "Cannabinoid receptor 1", "result": "> 10", "unit": "µM"}, {"measurement": "AC50", "setting": "D(1B) dopamine receptor", "result": "> 10", "unit": "µM"}, {"measurement": "AC50", "setting": "[11]", "result": "> 10", "unit": "µM"}, {"measurement": "AC50", "setting": "[6]", "result": "> 10", "unit": "µM"}, {"measurement": "AC50", "setting": "[7]", "result": "> 10", "unit": "µM"}]}, {"smiles": "CO/N=C(\\C(=O)N[C@@H]1C(=O)N2C(C(=O)O)=C(CSc3nc(=O)c(=O)[nH]n3C)CS[C@H]12)c1csc(N)n1", "note": "[CEFTRIAXONE]", "values": [{"measurement": "AC50", "setting": "[4]", "result": "> 50", "unit": "µM"}, {"measurement": "AC50", "setting": "[1]", "result": "> 30", "unit": "µM"}, {"measurement": "AC50", "setting": "[2]", "result": 1.4, "unit": "µM"}]}, {"smiles": "CCOC(=O)[C@@H](N)Cc1ccc(-c2cc(O[C@H](c3ccc(Cl)cc3-n3ccc(C)n3)C(F)(F)F)nc(N)n2)cc1", "note": "[TELOTRISTAT ETHYL]", "values": [{"measurement": "AC50", "setting": "[1]", "result": "> 30", "unit": "µM"}, {"measurement": "AC50", "setting": "[2]", "result": "> 30", "unit": "µM"}]}, {"smiles": "CCCCCCCC(=O)CC[C@@H]1[C@@H](C/C=C\\CCCC(=O)OC(C)C)[C@@H](O)C[C@H]1O", "note": "[UNOPROSTONE ISOPROPYL]", "values": [{"measurement": "AC50", "setting": "[4]", "result": "> 50", "unit": "µM"}]}, {"smiles": "C[N+]12CCC(CC1)C(OC(=O)C(O)(c1ccccc1)c1ccccc1)C2", "note": "(stereo unspecified)", "values": [{"measurement": "AC50", "setting": "[5]", "result": 0.0047, "unit": "µM"}, {"measurement": "AC50", "setting": "[10]", "result": 0.0068, "unit": "µM"}]}, {"smiles": "CCOC(=O)C(C)(C)Oc1ccc(Cl)cc1", "note": "[CLOFIBRATE]", "values": [{"measurement": "AC50", "setting": "[1]", "result": "> 30", "unit": "µM"}, {"measurement": "AC50", "setting": "[2]", "result": "> 30", "unit": "µM"}]}, {"smiles": "COc1cc(N)c(Cl)cc1C(=O)NC1CCN(CCCOc2ccc(F)cc2)CC1OC", "note": "(stereo unspecified) [CISAPRIDE]", "values": [{"measurement": "AC50", "setting": "[4]", "result": "> 50", "unit": "µM"}]}, {"smiles": "CCN(CC)CCCC(C)Nc1c2ccc(Cl)cc2nc2ccc(OC)cc12", "note": "(stereo unspecified) [QUINACRINE]", "values": [{"measurement": "AC50", "setting": "[12]", "result": "> 10", "unit": "µM"}]}, {"smiles": "O=C1Nc2ccc(Cl)cc2C(c2ccccc2Cl)=NC1O", "note": "(stereo unspecified) [LORAZEPAM]", "values": [{"measurement": "AC50", "setting": "[3]", "result": "> 100", "unit": "µM"}, {"measurement": "AC50", "setting": "[9]", "result": "> 10", "unit": "µM"}]}]}
